Holding throughout (format): cell-based
Series [1] deals with human epithelial HeLa cells. The series can be described thus: HeLa cytotoxicity assay (CellTiter-Glo). Particulars: pCC50. In short, it runs like this:
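HeLa cells (5,000/well) stimulated with 10 nM IFN-γ, exposed to 11-point 3-fold compound dilutions for 2 days at 37 °C; viability by CellTiter-Glo ATP luminescence. Normalized to cell-free (100% cytotoxicity) and stimulated-cell DMSO (0%) controls; four-parameter fit gives pCC50.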
A general note: Cellular ATP, detected with luciferase, serves as a proxy for viable cell number.

Series [2] concerns human peripheral blood mononuclear cells (PBMC). Description: PBMC cytotoxicity assay (CellTiter-Glo). Conditions: 2 days, pCC50. The method in brief:
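Human PBMC (50,000 cells/well) stimulated with IFN-γ 100 ng/ml and LPS 50 ng/ml were exposed to 11-point 3-fold compound dilutions for 2 days at 37 °C, 5% CO2. Viability read by CellTiter-Glo ATP luminescence and normalized to no-cell and stimulated-DMSO controls. XC50 derived by four-parameter fit.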

The target of series [3] is T1, indoleamine 2, 3-dioxygenase (IDO1) (Homo sapiens, UniProt P14902). Description: IDO1 HeLa RapidFire MS assay (kynurenine detection by mass spectrometry). Also noted: to induce the expression of indoleamine 2, 3-dioxygenase (IDO1). Particulars: HeLa cells, pIC50, read-out: IDO1_HELA_PXC50 (converted). In short, it runs like this:
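Compound potency reported as pIC50 from kynurenine/internal-standard ratio (RapidFire MS) in supernatant of IFN-γ-induced (10 nM) HeLa cells, 5,000 per well, after 2 days' treatment with 11-point dilutions. Cytotoxicity in the same format by luminescent ATP detection, reported as pCC50.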

The target of series [4] is T1, indoleamine 2, 3-dioxygenase (IDO1). Description: IDO1 PBMC RapidFire MS assay (kynurenine detection by mass spectrometry). Particulars: human PBMC stimulated with IFN-γ and LPS, 2 days, pIC50, read-out: PBMC PXC50 (converted). Also noted: to induce the expression of indoleamine 2, 3-dioxygenase (IDO1); host or cells: human PBMC stimulated with IFN-gamma and LPS. In short, it runs like this:
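PBMCs (50,000 cells/well) stimulated with IFN-γ 100 ng/ml plus LPS 50 ng/ml, treated with 11-point 3-fold compound series for 2 days at 37° C. Supernatant kynurenine measured by RapidFire MS, normalised to internal standard; parallel cytotoxicity by CellTiter-Glo luminescence; curves fitted for XC50.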

T1 sequence (P14902 whole entry): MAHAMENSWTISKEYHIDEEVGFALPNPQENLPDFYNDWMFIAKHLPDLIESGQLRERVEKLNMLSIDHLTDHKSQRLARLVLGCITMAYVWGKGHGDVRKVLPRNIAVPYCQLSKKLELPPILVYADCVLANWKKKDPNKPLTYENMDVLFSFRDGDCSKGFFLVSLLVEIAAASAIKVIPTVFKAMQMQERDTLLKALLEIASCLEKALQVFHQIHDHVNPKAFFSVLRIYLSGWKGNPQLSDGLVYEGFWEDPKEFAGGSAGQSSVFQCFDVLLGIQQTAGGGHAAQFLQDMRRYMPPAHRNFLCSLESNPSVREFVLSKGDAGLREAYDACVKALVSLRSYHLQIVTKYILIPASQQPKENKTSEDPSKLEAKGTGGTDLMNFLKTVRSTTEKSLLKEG

In the case of `CC(C)CN(c1ccc([C@H](C)CC(=O)O)cc1Nc1nc(C(F)(F)F)ns1)[C@H]1CC[C@@H](O)CC1` [Example 59, (R)-3-(4-(((1s,4S)-4-hydroxycyclohexyl) (isobutyl)amino)-3-((3-(trifluoromethyl)-1,2,4-thiadiazol-5-yl)amino)phenyl)butanoic Acid], the HELA_IDO1_TOX_PXC50 in series [1] is on record as under 5. Moreover, the “PBMC TOX PXC50” value in series [2] is given as under 5. Besides, the IC50 in series [3] was 10 nM; in series [4], 6.31 nM.
In turn, `COCc1nnc(Nc2cc([C@H](C)CC(=O)O)ccc2N(CC(C)C)C2CCCCC2)[nH]1` [Example 82, (R)-3-(4-(cyclohexyl(isobutyl)amino)-3-((5-(methoxymethyl)-4H-1,2,4-triazol-3-yl)amino)phenyl)butanoic Acid] had an HELA_IDO1_TOX_PXC50 in series [1] of under 5. Further, the “PBMC TOX PXC50” value in series [2] is on record as under 5. Moreover, the IC50 in series [3] was 15.8 nM; in series [4], 7.94 nM.
Consider `CC(C)CN(CC(C)C)c1ccc(C(C)CC(=O)O)cc1-n1nnnc1N` (stereo not drawn) [example 167, 3-[3-(5-amino-1H-1,2,3,4-tetrazol-1-yl)-4-[bis(2-methylpropyl)amino]phenyl]butanoic acid], for which, in series [1], the HELA_IDO1_TOX_PXC50 was under 5. Also, in series [2], the “PBMC TOX PXC50” value was under 5. Besides, the IC50 in series [3] was over 10000 nM; in series [4], 6310 nM.
The compound `CC(C)CN(CC(C)C)c1ccc(C(C)CC(=O)O)cc1Nc1nc2ccccc2n1C` (stereo not drawn) [example 119, 3-{4-[bis(2-methylpropyl)amino]-3-[(1-methyl-1H-1,3-benzodiazol-2-yl)amino]phenyl}butanoic acid] returned an HELA_IDO1_TOX_PXC50 in series [1] of under 4.3. In series [2], the “PBMC TOX PXC50” value is reported as under 4.3. The IC50 in series [3] was 1260 nM.
`CC(C)CN(c1ccc(C2CC2C(=O)O)cc1Nc1nc(C(F)(F)F)ns1)C1CCCCC1` (single isomer, unassigned) [Example 105, 2-(4-(cyclohexyl(isobutyl)amino)-3-((3-(trifluoromethyl)-1,2,4-thiadiazol-5-yl)amino)phenyl)cyclopropanecarboxylic Acid]: the HELA_IDO1_TOX_PXC50 in series [1] is given as under 5. Moreover, the results for the IC50 in series [3] and in series [4] were 6.31 nM and 3.16 nM, respectively.
In turn, `CC(C)CN(CC(C)C)c1ccc(C(C)CC(=O)O)cc1Nc1nc(N2CCOCC2)ns1.O=C(O)C(F)(F)F` (stereo not drawn) [example 117, 3-{4-[bis(2-methylpropyl)amino]-3-{[3-(morpholin-4-yl)-1,2,4-thiadiazol-5-yl]amino}phenyl}butanoic acid] came in with an HELA_IDO1_TOX_PXC50 in series [1] of under 4.3. Further, the “PBMC TOX PXC50” value in series [2] is under 4.3. In addition, the IC50 in series [3] is 3980 nM.
In the case of `CC(C)CN(c1ccc([C@H](C)CC(=O)O)cc1NC1CCC[C@@H](C)C1)C1CCCCC1` (stereo partly drawn) [example 184, (3R)-3-{4-[cyclohexyl(2-methylpropyl)amino]-3-{[(3R)-3-methylcyclohexyl]amino}phenyl}butanoic acid], the HELA_IDO1_TOX_PXC50 in series [1] is on record as under 5. Further, the IC50 in series [3] is 501 nM.
The compound `COCc1nnc(Nc2cc(C(C)CC(=O)O)ccc2N(CC(C)C)CC(C)C)s1` (stereo not drawn) [example 188, 3-{4-[bis(2-methylpropyl)amino]-3-{[5-(methoxymethyl)-1,3,4-thiadiazol-2-yl]amino}phenyl}butanoic acid] displayed an HELA_IDO1_TOX_PXC50 in series [1] of under 5. Moreover, in series [3], the IC50 was 126 nM.
The compound `CC(C)CN(CC(C)C)c1ccc(C(C)CC(=O)O)cc1Nc1cnc(CO)s1` (stereo not drawn) [example 207, 3-{4-[bis(2-methylpropyl)amino]-3-{[2-(hydroxymethyl)-1,3-thiazol-5-yl]amino}phenyl}butanoic acid] yielded an HELA_IDO1_TOX_PXC50 in series [1] of under 5. In addition, the IC50 in series [3] was 631 nM.
For the compound `COc1ccnc(Nc2cc(C(C)CC(=O)O)ccc2N(CC(C)C)CC(C)C)n1.O=C(O)C(F)(F)F` (stereo not drawn) [example 127, 3-{4-[bis(2-methylpropyl)amino]-3-[(4-methoxypyrimidin-2-yl)amino]phenyl}butanoic acid], in series [1], the HELA_IDO1_TOX_PXC50 was under 4.3. The IC50 in series [3] is 2510 nM.
In series [1], `CC(C)CN(CC(C)C)c1ccc(C(C)CC(=O)O)cc1Nc1nc(C2CC2)cs1` (stereo not drawn) [example 141, 3-{4-[bis(2-methylpropyl)amino]-3-[(4-cyclopropyl-1,3-thiazol-2-yl)amino]phenyl}butanoic acid] returned an HELA_IDO1_TOX_PXC50 of under 5. The IC50 in series [3] was 794 nM.
For `Cc1nnc(Nc2cc([C@H](C)CC(=O)O)ccc2N(CC(C)C)CC(C)C)s1` [example 186, (3R)-3-{4-[bis(2-methylpropyl)amino]-3-[(5-methyl-1,3,4-thiadiazol-2-yl)amino]phenyl}butanoic acid], in that order: under 5 and 79.4 nM.
In series [1], `CC(C)CN(c1ccc(C(C)CC(=O)O)cc1NC1CCS(=O)(=O)CC1)C1CCCCC1` (stereo not drawn) [example 134, 3-{4-[cyclohexyl(2-methylpropyl)amino]-3-[(1,1-dioxo-1λ^6-thian-4-yl)amino]phenyl}butanoic acid] gave an HELA_IDO1_TOX_PXC50 of under 5. The IC50 in series [3] is 3160 nM.
In series [1], `CC(C)CN(CC(C)C)c1ccc(C(C)CC(=O)O)cc1Nc1ccccc1` (stereo not drawn) [example 142, 3-{4-[bis(2-methylpropyl)amino]-3-(phenylamino)phenyl} butanoic acid] showed an HELA_IDO1_TOX_PXC50 of under 5. The IC50 in series [3] is 158 nM.
The compound `CC(C)CN(c1ccc(C(C)CC(=O)O)cc1NC1CCN(C)CC1)C1CCCCC1` (stereo not drawn) [example 140, 3-{4-[cyclohexyl(2-methylpropyl)amino]-3-[(1-methylpiperidin-4-yl)amino]phenyl}butanoic acid] displayed an HELA_IDO1_TOX_PXC50 in series [1] of under 5. In addition, the IC50 in series [3] is 3160 nM.
The corresponding values for `Cc1nc(Cc2ccccc2)c(Nc2cc(C(C)CC(=O)O)ccc2N(CC(C)C)CC(C)C)s1` (stereo not drawn) [example 146, 3-{3-[(4-benzyl-2-methyl-1,3-thiazol-5-yl)amino]-4-[bis(2-methylpropyl)amino]phenyl}butanoic acid] are under 5 and over 10000 nM.
In series [1], `COCc1ccc(Nc2cc(C(C)CC(=O)O)ccc2N(CC(C)C)CC(C)C)nc1` (stereo not drawn) [example 193, 3-{4-[bis(2-methylpropyl)amino]-3-{[5-(methoxymethyl)pyridin-2-yl]amino}phenyl}butanoic acid] gave an HELA_IDO1_TOX_PXC50 of under 5. For the same compound, in series [3], the IC50 is 100 nM.
As for `CC(C)CN(c1ccc([C@H](C)CC(=O)O)cc1NC1CCCC1)C1CCCCC1` [example 179, (3R)-3-{4-[cyclohexyl(2-methylpropyl)amino]-3-(cyclopentylamino)phenyl}butanoic acid], the HELA_IDO1_TOX_PXC50 in series [1] is recorded as under 5. The figures for the IC50 in series [3] and in series [4] were 251 nM and 126 nM, respectively.
In series [1], `CC(C)CN(c1ccc(-c2cn(C)nc2C(=O)O)cc1Nc1nc2ccccc2o1)C1CCCCC1` [example 176, 4-{3-[(1,3-benzoxazol-2-yl)amino]-4-[cyclohexyl(2-methylpropyl)amino]phenyl}-1-methyl-1H-pyrazole-3-carboxylic acid] gave an HELA_IDO1_TOX_PXC50 of under 5. For the same compound, in series [3], the IC50 was 3160 nM.
Compound `CC(=O)Nc1ccc(Nc2cc(C(C)CC(=O)O)ccc2N(CC(C)C)CC(C)C)nc1` (stereo not drawn) [example 199, 3-{4-[bis(2-methylpropyl)amino]-3-[(5-acetamidopyridin-2-yl)amino]phenyl}butanoic acid] returned an HELA_IDO1_TOX_PXC50 in series [1] of under 5. Moreover, the IC50 in series [3] was 6310 nM.
Compound `CC(C)CN(CC(C)C)c1ccc(C(C)CC(=O)O)cc1Nc1nc(N2CCN(C)CC2)ns1` (stereo not drawn) [example 116, 3-{4-[bis(2-methylpropyl)amino]-3-{[3-(4-methylpiperazin-1-yl)-1,2,4-thiadiazol-5-yl]amino}phenyl}butanoic acid] gave an HELA_IDO1_TOX_PXC50 in series [1] of under 4.3. Moreover, the “PBMC TOX PXC50” value in series [2] is under 4.3. Also, the IC50 in series [3] is 39800 nM.
The compound `CC(C)CN(c1ccc(C(C)CC(=O)O)cc1Nc1nc(Cl)ns1)C1COC1` (stereo not drawn) [example 205, 3-{3-[(3-chloro-1,2,4-thiadiazol-5-yl)amino]-4-[{2-methylpropyl)(oxetan-3-yl)amino]phenyl}butanoic acid] showed an HELA_IDO1_TOX_PXC50 in series [1] of under 5. Besides, the IC50 in series [3] is over 10000 nM.
In turn, `CC(C)CN(CC(C)C)c1ccc(C(C)CC(=O)O)cc1Nc1ccc(CO)cn1` (stereo not drawn) [example 194, 3-{4-[bis(2-methylpropyl)amino]-3-{[5-(hydroxymethyl)pyridin-2-yl]amino}phenyl}butanoic acid] gave an HELA_IDO1_TOX_PXC50 in series [1] of under 5. Besides, the IC50 in series [3] is 200 nM.
Take `CC(C)CN(CC(C)C)c1ccc(C(C)CC(=O)O)cc1Nc1nc(N2CCCC2)ns1.O=C(O)C(F)(F)F` (stereo not drawn) [example 118, 3-{4-[bis(2-methylpropyl)amino]-3-{[3-(pyrrolidin-1-yl)-1,2,4-thiadiazol-5-yl]amino}phenyl}butanoic acid]: in series [1], the HELA_IDO1_TOX_PXC50 is reported as under 4.3. Also, the “PBMC TOX PXC50” value in series [2] is listed as under 4.3. The IC50 in series [3] is 5010 nM.

The record behind these values is patent publication US10899754B2, “Modulators of indoleamine 2,3-dioxygenase” (GLAXOSMITHKLINE INTELLECTUAL PROPERTY DEVELOPMENT LIMITED, priority 2016, dated 2021).
